Reference: BindingDB's records for doi:10.1016/j.bmcl.2010.02.003 (Boehringer Ingelheim (Canada), 2010)
pIC50: −log10 of the molar value.

Assays:
Cytochrome P450 2D6 = Cytochrome P450 2D6 (Homo sapiens, UniProt P10635); assay: Inhibition of CYP2D6
Cytochrome P450 1A2 = target: T1, Cytochrome P450 1A2 (Homo sapiens, UniProt P05177); assay: Inhibition of CYP1A2
T1 sequence (P05177 whole entry): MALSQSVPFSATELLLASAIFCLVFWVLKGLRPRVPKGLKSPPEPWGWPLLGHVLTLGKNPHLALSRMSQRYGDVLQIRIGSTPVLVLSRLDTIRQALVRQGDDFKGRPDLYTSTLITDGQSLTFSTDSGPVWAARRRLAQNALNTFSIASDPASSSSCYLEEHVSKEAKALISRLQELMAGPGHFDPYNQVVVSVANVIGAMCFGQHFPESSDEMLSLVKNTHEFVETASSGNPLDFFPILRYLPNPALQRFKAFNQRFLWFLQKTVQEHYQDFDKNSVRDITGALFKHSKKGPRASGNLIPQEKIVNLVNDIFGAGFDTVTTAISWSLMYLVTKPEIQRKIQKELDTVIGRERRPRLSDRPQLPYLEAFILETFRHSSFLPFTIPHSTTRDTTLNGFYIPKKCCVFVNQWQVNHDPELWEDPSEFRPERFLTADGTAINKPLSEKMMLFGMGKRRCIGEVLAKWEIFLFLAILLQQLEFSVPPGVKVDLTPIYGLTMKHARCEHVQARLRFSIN

Cytochrome P450 3A4 = Cytochrome P450 3A4 (Homo sapiens, UniProt P08684); assay: Inhibition of CYP3A4
Cytochrome P450 3A4, sequence (P08684 whole entry): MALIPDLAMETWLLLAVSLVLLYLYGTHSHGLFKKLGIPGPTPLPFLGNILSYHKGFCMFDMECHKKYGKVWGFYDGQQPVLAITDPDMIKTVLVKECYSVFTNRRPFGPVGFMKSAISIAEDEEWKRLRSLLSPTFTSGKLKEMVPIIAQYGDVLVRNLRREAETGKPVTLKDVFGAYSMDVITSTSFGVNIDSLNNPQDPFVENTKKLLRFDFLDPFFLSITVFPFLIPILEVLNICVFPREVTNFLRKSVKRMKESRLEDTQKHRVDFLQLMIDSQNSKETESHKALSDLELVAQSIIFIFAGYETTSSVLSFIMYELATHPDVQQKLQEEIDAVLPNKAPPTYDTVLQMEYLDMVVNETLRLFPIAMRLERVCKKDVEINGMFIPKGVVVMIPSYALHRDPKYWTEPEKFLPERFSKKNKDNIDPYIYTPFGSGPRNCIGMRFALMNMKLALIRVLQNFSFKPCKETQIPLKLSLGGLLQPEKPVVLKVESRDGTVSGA

Cytochrome P450 2D6, sequence (P10635 whole entry): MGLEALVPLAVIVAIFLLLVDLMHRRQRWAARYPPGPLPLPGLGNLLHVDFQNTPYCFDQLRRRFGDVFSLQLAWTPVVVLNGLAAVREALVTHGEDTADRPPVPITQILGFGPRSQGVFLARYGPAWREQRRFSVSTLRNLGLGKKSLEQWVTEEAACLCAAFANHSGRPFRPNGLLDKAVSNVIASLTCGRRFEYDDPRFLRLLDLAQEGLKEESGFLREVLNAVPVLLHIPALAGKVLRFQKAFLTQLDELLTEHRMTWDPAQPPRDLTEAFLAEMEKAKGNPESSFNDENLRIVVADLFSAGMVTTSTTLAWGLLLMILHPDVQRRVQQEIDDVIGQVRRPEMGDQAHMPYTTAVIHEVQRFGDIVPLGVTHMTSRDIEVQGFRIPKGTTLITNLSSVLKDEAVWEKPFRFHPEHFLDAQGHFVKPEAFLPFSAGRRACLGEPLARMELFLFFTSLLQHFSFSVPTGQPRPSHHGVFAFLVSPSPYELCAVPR

Row | pIC50 (Cytochrome P450 2D6) | pIC50 (Cytochrome P450 1A2) | pIC50 (Cytochrome P450 3A4) | SMILES
1 | < 4.52 | < 4.52 | < 4.52 | O=C(O)/C=C/c1ccc(NC(=O)C2(NC(=O)c3ccc4c(c3)nc(-c3ccoc3)n4C3CCCCC3)CCCC2)cc1 [3-(4-(1-(1-cyclohexyl-2-(furan-3-yl)-1H-benzo[d]imidazole-5-carboxamido)cyclopentanecarboxamido)phenyl)acrylic acid]
2 | – | < 4.52 | – | O=C(N[C@@H](Cc1c[nH]c2ccc(O)cc12)c1cscn1)c1ccc2c(c1)nc(-c1ccoc1)n2C1CCCCC1 [1-cyclohexyl-2-(furan-3-yl)-N-((S)-2-(5-hydroxy-1H-indol-3-yl)-1-(thiazol-4-yl)ethyl)-1H-benzo[d]imidazole-5-carboxamide]
3 | < 4.52 | < 4.52 | < 4.52 | O=C(O)/C=C/c1ccc(NC(=O)C2(NC(=O)c3ccc4c(c3)nc(-c3ccccn3)n4C3CCCCC3)CCCC2)cc1 [3-(4-(1-(1-cyclohexyl-2-(pyridin-2-yl)-1H-benzo[d]imidazole-5-carboxamido)cyclopentanecarboxamido)phenyl)acrylic acid]
